Converted amounts (≈) assume the structure as drawn.
Assays:
Assay type in all cases: cell-based
[1] = test system: HCT15 (colon adenocarcinoma); experiment: In vitro cytotoxicity, sulforhodamine B (SRB) method, HCT15; conditions: Homo sapiens; HCT-15, SRB method; read-out: cytotoxicity (ED50) HCT-15
Method: (§1) The chalcone derivatives of the present invention were evaluated for in vitro cytotoxicity against human carcinoma cell lines using a sulforhodamine B (SRB) method, which was developed in 1989 by the National Cancer Institute (NCI), USA.
(§2) HCT15 (colon adenocarcinoma; ATCC CCL-225), PC-3 (prostate adenocarcinoma; ATCC CRL-1435), and A-549 (lung carcinoma; ATCC CCL-185) cell lines were used. All of these carcinoma cells were sub-cultured at the Korean Research Institute of Bioscience and Biotechnology (KRIBB), Korea.
(§3) The human carcinoma cell lines were cultured in 10% FCS-containing RPMI 1640 medium (Gibco Cat. No. 31800) in an incubator at 37° C. under 5% CO2, and sub-cultured twice per week.
(§4) Cells were detached from the attached surface using 0.25% Trypsin (Sigma) and 3 mM CDTA (1,2-cyclohexane diamine tetraacetic acid, Sigma) in phosphate buffered saline (PBS, Sigma).
(§5) Compounds to be tested (the chalcone derivatives set forth in Table 1) were dissolved in a small amount of dimethylsulfoxide (DMSO, Sigma), and diluted in culture medium to a desired concentration. The final concentration of DMSO was less than 0.5%. The diluted compounds (final concentration: 30, 10, 3, 1 and 0.3 μg/ml) were sterilized through a 0.22-μm microfilter (Millipore). The cytotoxicity of the compounds to human carcinoma cell lines was assessed using a typical SRB method.

A-549 (lung carcinoma) = experiment: In vitro cytotoxicity, sulforhodamine B (SRB) method, A-549; conditions: Homo sapiens, A549; A-549, SRB method; read-out: cytotoxicity (ED50) A-549
Method: as §1, §2, §3, §4, §5

[2] = test system: PC-3 (prostate adenocarcinoma); experiment: In vitro cytotoxicity, sulforhodamine B (SRB) method, PC-3; conditions: Homo sapiens; PC-3, SRB method; read-out: cytotoxicity (ED50) PC-3
Method: as §1, §2, §3, §4, §5

Row | Structure (SMILES) | IC50 [1] [µg/mL] | IC50 (A-549 (lung carcinoma)) [µg/mL] | IC50 [2] [µg/mL]
1 | Cc1ccc(S(=O)(=O)Nc2ccc(C(=O)/C=C/c3cccc(O)c3)cc2)cc1 [Compound 2, 4′-(p-toluenesulfonylamino)-3-hydroxychalcone] | 37 (≈ 94 µM) | 36 (≈ 91.5 µM) | 39 (≈ 99.1 µM)
2 | Cc1ccc(S(=O)(=O)Nc2ccc(C(=O)/C=C/c3ccccc3O)cc2)cc1 [Compound 3, 4′-(p-toluenesulfonylamino)-2-hydroxychalcone] | 40 (≈ 102 µM) | 35 (≈ 89 µM) | 37 (≈ 94 µM)
3 | Cc1ccc(S(=O)(=O)Nc2cccc(C(=O)/C=C/c3ccc(O)cc3)c2)cc1 [Compound 4, 3′-(p-toluenesulfonylamino)-4-hydroxychalcone] | 38 (≈ 96.6 µM) | 34 (≈ 86.4 µM) | 37 (≈ 94 µM)
4 | Cc1ccc(S(=O)(=O)Nc2ccccc2C(=O)/C=C/c2ccc(O)cc2)cc1 [Compound 5, 2′-(p-toluenesulfonylamino)-4-hydroxychalcone] | 42 (≈ 107 µM) | 40 (≈ 102 µM) | 47 (≈ 119 µM)
5 | O=C(/C=C/c1ccc(O)cc1)c1ccc(NS(=O)(=O)c2ccc(O)cc2)cc1 [Compound 6, 4′-(p-hydroxybenzenesulfonylamino)-4-hydroxychalcone] | 37 (≈ 93.6 µM) | 41 (≈ 104 µM) | 33 (≈ 83.5 µM)
6 | O=C(/C=C/c1cccc(O)c1)c1ccc(NS(=O)(=O)c2ccc(O)cc2)cc1 [Compound 7, 4′-(p-hydroxybenzenesulfonylamino)-3-hydroxychalcone] | 33 (≈ 83.5 µM) | 30 (≈ 75.9 µM) | 37 (≈ 93.6 µM)
7 | O=C(/C=C/c1ccccc1O)c1ccc(NS(=O)(=O)c2ccc(O)cc2)cc1 [Compound 8, 4′-(p-hydroxybenzenesulfonylamino)-2-hydroxychalcone] | 30 (≈ 75.9 µM) | 31 (≈ 78.4 µM) | 34 (≈ 86 µM)
8 | O=C(/C=C/c1ccc(O)cc1)c1cccc(NS(=O)(=O)c2ccc(O)cc2)c1 [Compound 9, 3′-(p-hydroxybenzenesulfonylamino)-4-hydroxychalcone] | 24 (≈ 60.7 µM) | 40 (≈ 101 µM) | 31 (≈ 78.4 µM)
9 | O=C(/C=C/c1cccc(O)c1)c1cccc(NS(=O)(=O)c2ccc(O)cc2)c1 [Compound 10, 3′-(p-hydroxybenzenesulfonylamino)-3-hydroxychalcone] | 30 (≈ 75.9 µM) | 30 (≈ 75.9 µM) | 32 (≈ 80.9 µM)
10 | O=C(/C=C/c1ccccc1O)c1cccc(NS(=O)(=O)c2ccc(O)cc2)c1 [Compound 11, 3′-(p-hydroxybenzenesulfonylamino)-2-hydroxychalcone] | 39 (≈ 98.6 µM) | 38 (≈ 96.1 µM) | 41 (≈ 104 µM)
11 | O=C(/C=C/c1ccc(O)cc1)c1ccccc1NS(=O)(=O)c1ccc(O)cc1 [Compound 12, 2′-(p-hydroxybenzenesulfonylamino)-4-hydroxychalcone] | 37 (≈ 93.6 µM) | 35 (≈ 88.5 µM) | 37 (≈ 93.6 µM)
12 | O=C(/C=C/c1cccc(O)c1)c1ccccc1NS(=O)(=O)c1ccc(O)cc1 [Compound 13, 2′-(p-hydroxybenzenesulfonylamino)-3-hydroxychalcone] | 38 (≈ 96.1 µM) | 36 (≈ 91 µM) | 41 (≈ 104 µM)
13 | O=C(/C=C/c1ccccc1O)c1ccccc1NS(=O)(=O)c1ccc(O)cc1 [Compound 14, 2′-(p-hydroxybenzenesulfonylamino)-2-hydroxychalcone] | 38 (≈ 96.1 µM) | 31 (≈ 78.4 µM) | 29 (≈ 73.3 µM)
14 | O=C(/C=C/c1ccc(O)cc1)c1ccc(NS(=O)(=O)c2cccc(O)c2)cc1 [Compound 15, 4′-(m-hydroxybenzenesulfonylamino)-4-hydroxychalcone] | 33 (≈ 83.5 µM) | 43 (≈ 109 µM) | 41 (≈ 104 µM)
15 | O=C(/C=C/c1cccc(O)c1)c1ccc(NS(=O)(=O)c2cccc(O)c2)cc1 [Compound 16, 4′-(m-hydroxybenzenesulfonylamino)-3-hydroxychalcone] | 37 (≈ 93.6 µM) | 33 (≈ 83.5 µM) | 47 (≈ 119 µM)
16 | O=C(/C=C/c1ccccc1O)c1ccc(NS(=O)(=O)c2cccc(O)c2)cc1 [Compound 17, 4′-(m-hydroxybenzenesulfonylamino)-2-hydroxychalcone] | 32 (≈ 80.9 µM) | 33 (≈ 83.5 µM) | 44 (≈ 111 µM)
17 | O=C(/C=C/c1ccc(O)cc1)c1cccc(NS(=O)(=O)c2cccc(O)c2)c1 [Compound 18, 3′-(m-hydroxybenzenesulfonylamino)-4-hydroxychalcone] | 33 (≈ 83.5 µM) | 31 (≈ 78.4 µM) | 39 (≈ 98.6 µM)
18 | O=C(/C=C/c1cccc(O)c1)c1cccc(NS(=O)(=O)c2cccc(O)c2)c1 [Compound 19, 3′-(m-hydroxybenzenesulfonylamino)-3-hydroxychalcone] | 38 (≈ 96.1 µM) | 47 (≈ 119 µM) | 53 (≈ 134 µM)

Row | Structure (SMILES) | IC50 [1] [µg/mL] | IC50 (A-549 (lung carcinoma)) [µg/mL] | IC50 [2] [µg/mL]
19 | O=C(/C=C/c1ccccc1O)c1cccc(NS(=O)(=O)c2cccc(O)c2)c1 [Compound 20, 3′-(m-hydroxybenzenesulfonylamino)-2-hydroxychalcone] | 40 (≈ 101 µM) | 35 (≈ 88.5 µM) | 39 (≈ 98.6 µM)
20 | O=C(/C=C/c1ccc(O)cc1)c1ccccc1NS(=O)(=O)c1cccc(O)c1 [Compound 21, 2′-(m-hydroxybenzenesulfonylamino)-4-hydroxychalcone] | 31 (≈ 78.4 µM) | 39 (≈ 98.6 µM) | 43 (≈ 109 µM)
21 | O=C(/C=C/c1cccc(O)c1)c1ccccc1NS(=O)(=O)c1cccc(O)c1 [Compound 22, 2′-(m-hydroxybenzenesulfonylamino)-3-hydroxychalcone] | 28 (≈ 70.8 µM) | 27 (≈ 68.3 µM) | 45 (≈ 114 µM)
22 | O=C(/C=C/c1ccccc1O)c1ccccc1NS(=O)(=O)c1cccc(O)c1 [Compound 23, 2′-(m-hydroxybenzenesulfonylamino)-2-hydroxychalcone] | 35 (≈ 88.5 µM) | 31 (≈ 78.4 µM) | 37 (≈ 93.6 µM)
23 | O=C(/C=C/c1ccc(O)cc1)c1ccc(NS(=O)(=O)c2ccc(F)cc2)cc1 [Compound 24, 4′-(p-fluorobenzensulfonylamino)-4-hydroxychalcone] | 55 (≈ 138 µM) | 50 (≈ 126 µM) | 51 (≈ 128 µM)
24 | O=C(/C=C/c1ccc(O)cc1)c1ccc(NS(=O)(=O)c2cccc(F)c2)cc1 [Compound 25, 4′-(m-fluorobenzensulfonylamino)-4-hydroxychalcone] | 54 (≈ 136 µM) | 51 (≈ 128 µM) | 57 (≈ 143 µM)
25 | O=C(/C=C/c1ccc(O)cc1)c1ccc(NS(=O)(=O)c2ccccc2F)cc1 [Compound 26, 4′-(o-fluorobenzensulfonylamino)-4-hydroxychalcone] | 22 (≈ 55.4 µM) | 20 (≈ 50.3 µM) | 28 (≈ 70.5 µM)
26 | O=C(/C=C/c1ccc(O)cc1)c1ccc(NS(=O)(=O)c2ccc([N+](=O)[O-])cc2)cc1 [Compound 27, 4′-(p-nitrobenzensulfonylamino)-4-hydroxychalcone] | 41 (≈ 96.6 µM) | 34 (≈ 80.1 µM) | 47 (≈ 111 µM)
27 | O=C(/C=C/c1ccc(O)cc1)c1ccc(NS(=O)(=O)c2cccc([N+](=O)[O-])c2)cc1 [Compound 28, 4′-(m-nitrobenzensulfonylamino)-4-hydroxychalcone] | 54 (≈ 127 µM) | 59 (≈ 139 µM) | 57 (≈ 134 µM)
28 | O=C(/C=C/c1ccc(O)cc1)c1ccc(NS(=O)(=O)c2ccccc2[N+](=O)[O-])cc1 [Compound 29, 4′-(o-nitrobenzensulfonylamino)-4-hydroxychalcone] | 29 (≈ 68.3 µM) | 37 (≈ 87.2 µM) | 21 (≈ 49.5 µM)
29 | Nc1ccc(S(=O)(=O)Nc2ccc(C(=O)/C=C/c3ccc(O)cc3)cc2)cc1 [Compound 30, 4′-(p-aminobenzensulfonylamino)-4-hydroxychalcone] | 52 (≈ 132 µM) | 50 (≈ 127 µM) | 59 (≈ 150 µM)
30 | Nc1cccc(S(=O)(=O)Nc2ccc(C(=O)/C=C/c3ccc(O)cc3)cc2)c1 [Compound 31, 4′-(m-aminobenzensulfonylamino)-4-hydroxychalcone] | 24 (≈ 60.8 µM) | 34 (≈ 86.2 µM) | 27 (≈ 68.4 µM)
31 | Nc1ccccc1S(=O)(=O)Nc1ccc(C(=O)/C=C/c2ccc(O)cc2)cc1 [Compound 32, 4′-(o-aminobenzensulfonylamino)-4-hydroxychalcone] | 47 (≈ 119 µM) | 45 (≈ 114 µM) | 41 (≈ 104 µM)
32 | O=C(/C=C/c1ccc(O)cc1)c1ccc(NS(=O)(=O)c2ccccc2)cc1 [Compound 33, 4′-(benzensulfonylamino)-4-hydroxychalcone] | 47 (≈ 124 µM) | 45 (≈ 119 µM) | 42 (≈ 111 µM)
33 | CS(=O)(=O)Nc1ccc(C(=O)/C=C/c2ccc(O)cc2)cc1 [Compound 34, 4′-(methanesulfonylamino)-4-hydroxychalcone] | 54 (≈ 170 µM) | 74 (≈ 233 µM) | 64 (≈ 202 µM)
34 | Cc1ccc(S(=O)(=O)Oc2ccc(C(=O)/C=C/c3ccc(O)cc3)cc2)cc1 [Compound 35, 4′-(p-toluenesulfonate)-4-hydroxychalcone] | 51 (≈ 129 µM) | 47 (≈ 119 µM) | 57 (≈ 145 µM)
35 | O=C(/C=C/c1ccc(O)cc1)c1ccc(OS(=O)(=O)c2ccc(F)cc2)cc1 [Compound 36, 4′-(p-fluorobenzenesulfonate)-4-hydroxychalcone] | 48 (≈ 120 µM) | 41 (≈ 103 µM) | 39 (≈ 97.9 µM)
36 | O=C(/C=C/c1ccc(O)cc1)c1ccc(OS(=O)(=O)c2cccc(F)c2)cc1 [Compound 37, 4′-(m-fluorobenzenesulfonate)-4-hydroxychalcone] | 34 (≈ 85.3 µM) | 37 (≈ 92.9 µM) | 27 (≈ 67.8 µM)

Reference: patent publication US9072698B2, “Method for screening anti-cancer compounds inhibiting function of TM4SF5 and anti-cancer composition containing chalcone compounds” (Seoul National University Industry Foundation, priority 2006, dated 2015)
